In brackets after ≈: the same amount, converted by molar mass.

Usually Ki stands for the equilibrium dissociation constant of an inhibitor or competing ligand from its target. One may read the kcat as the maximal rate divided by the concentration of active sites. As a reminder, the Vmax is the rate approached at saturating substrate. A word on the MIC: it is the lowest concentration that inhibits growth of the organism. As a reminder, the Kd is a measure of binding affinity in units of concentration.

Assay [1] can be described thus: Inhibition of Staphylococcus aureus MurA expressed in Escherichia coli BL21(DE3) assessed as using DP-G1cNAc as substrate preincubated for 15 mins by HPLC method.
For assay [2], the system named is Staphylococcus aureus. Description: Inhibition of Staphylococcus aureus MurA expressed in Escherichia coli BL21(DE3) assessed as Kcat for DP-G1cNAc to EU- DP-G1cNAc conversion at 100 uM preincubated for 15 mins by HPLC method (reference value: 0.471 +/- 0.994 /min).
For assay [3], the system named is Staphylococcus aureus. Description: Inhibition of Staphylococcus aureus MurA expressed in Escherichia coli BL21(DE3) assessed as Vmax for DP-G1cNAc to EU- DP-G1cNAc conversion at 50 uM preincubated for 15 mins by HPLC method (reference value: 0.235 +/- 0.049 uM/min).
In assay [4] the test system is Staphylococcus aureus. Description: Antibacterial activity against Staphylococcus aureus NE939 Tn mutant assessed as growth inhibition incubated at 16 to 24 hrs by CLSI method. Format: functional. To be noted: time 16-24 hrs.
The test system of assay [5] is Staphylococcus aureus. Description: Inhibition of Staphylococcus aureus MurA expressed in Escherichia coli BL21(DE3) assessed as Kcat for DP-G1cNAc to EU- DP-G1cNAc conversion at 50 uM preincubated for 15 mins by HPLC method (reference value: 0.471 +/- 0.994 /min).
Assay [6] deals with Staphylococcus aureus. Description: Synergistic antibacterial activity against Staphylococcus aureus UAMS-1 AlbR A resistant mutant assessed as fractional inhibitory concentration index in presence of fosfomycin by broth microdilution assay. Format: functional.
Assay [7] relates to Staphylococcus aureus. As to the kind of experiment: Antibacterial activity against Staphylococcus aureus UAMS-1 assessed as growth inhibition incubated at 16 to 24 hrs by CLSI method. Format: functional. The note with it: time 16-24 hrs.
For assay [8], the system named is Staphylococcus aureus. As to the kind of experiment: Synergistic antibacterial activity against Staphylococcus aureus UAMS-1 AlbR B resistant mutant assessed as fractional inhibitory concentration index in presence of fosfomycin by broth microdilution assay. Format: functional. (In general: Dilution methods test growth across graded concentrations, often in twofold steps.)

In assay [9] the test system is Staphylococcus aureus. Description: Antibacterial activity against Staphylococcus aureus UAMS-1 AlbR D resistant mutant assessed as growth inhibition incubated at 16 to 24 hrs by CLSI method. Format: functional. To be noted: time 16-24 hrs.
In assay [10] the test system is Staphylococcus aureus. Description: Antibacterial activity against Staphylococcus aureus NE1416 Tn mutant assessed as growth inhibition incubated at 16 to 24 hrs by CLSI method. To be noted: time 16-24 hrs. Format: functional.
In assay [11] the target is Bacterial 70S ribosome. As to the kind of experiment: Binding affinity to Staphylococcus aureus 70S ribosome assessed as dissociation constant by measuring reduction in BODIPY-Erythromycin A binding incubated for 1.5 hr by fluorescence polarization assay. Format: subcellular. (Fluorescence polarisation rises when a labelled molecule tumbles more slowly, as on binding a larger partner.)

In assay [12] the test system is Staphylococcus aureus. Description: Synergistic antibacterial activity against Staphylococcus aureus UAMS-1 assessed as fractional inhibitory concentration index in presence of fosfomycin by broth microdilution assay. Format: functional.
The subject of assay [13] is Staphylococcus aureus. Description: Inhibition of Staphylococcus aureus MurA expressed in Escherichia coli BL21(DE3) assessed as Kcat for DP-G1cNAc to EU- DP-G1cNAc conversion at 150 uM preincubated for 15 mins by HPLC method (reference value: 0.471 +/- 0.994 /min).
In assay [14] the test system is Staphylococcus aureus. As to the kind of experiment: Antibacterial activity against Staphylococcus aureus USA300 Tn mutant assessed as growth inhibition incubated at 16 to 24 hrs by CLSI method. Format: functional. The note with it: time 16-24 hrs.
In assay [15] the test system is Staphylococcus aureus. Description: Synergistic antibacterial activity against Staphylococcus aureus UAMS-1 AlbR D resistant mutant assessed as fractional inhibitory concentration index in presence of fosfomycin by broth microdilution assay. Format: functional.
For assay [16], the system named is Staphylococcus aureus. Description: Synergistic antibacterial activity against Staphylococcus aureus UAMS-1 AlbR C resistant mutant assessed as fractional inhibitory concentration index in presence of fosfomycin by broth microdilution assay. Format: functional.
The subject of assay [17] is Staphylococcus aureus. Description: Antibacterial activity against Staphylococcus aureus UAMS-1 AlbR A resistant mutant assessed as growth inhibition incubated at 16 to 24 hrs by CLSI method. Format: functional. To be noted: time 16-24 hrs.
Assay [18] has as its system Staphylococcus aureus. Description: Antibacterial activity against Staphylococcus aureus UAMS-1 AlbR C resistant mutant assessed as growth inhibition incubated at 16 to 24 hrs by CLSI method. Format: functional. The note with it: time 16-24 hrs.
In assay [19] the test system is Staphylococcus aureus. Description: Antibacterial activity against Staphylococcus aureus UAMS-1 AlbR B resistant mutant assessed as growth inhibition incubated at 16 to 24 hrs by CLSI method. Format: functional. To be noted: time 16-24 hrs.
The subject of assay [20] is Staphylococcus aureus. As to the kind of experiment: Inhibition of Staphylococcus aureus MurA expressed in Escherichia coli BL21(DE3) assessed as Vmax for DP-G1cNAc to EU- DP-G1cNAc conversion at 150 uM preincubated for 15 mins by HPLC method (reference value: 0.235 +/- 0.049 uM/min).
Assay [21] deals with Staphylococcus aureus. Description: Inhibition of Staphylococcus aureus MurA expressed in Escherichia coli BL21(DE3) assessed as Vmax for DP-G1cNAc to EU- DP-G1cNAc conversion at 100 uM preincubated for 15 mins by HPLC method (reference value: 0.235 +/- 0.049 uM/min).
The target in assay [22] is Bacterial 70S ribosome. Description: Binding affinity to Staphylococcus aureus 70S ribosome assessed as reduction in BODIPY-Erythromycin A binding incubated for 1.5 hr by fluorescence polarization assay. Format: subcellular.

`CO[C@H]1/C=C/[C@@](C)(O)/C=C/C(=O)O[C@H](C)[C@@H](C)CC/C=C/1C`: in [1], the Ki was found to be 23600 nM. Moreover, the kcat was 0.0024 s⁻¹ in the assay with Staphylococcus aureus [2], 0.00523 s⁻¹ with Staphylococcus aureus [5] and 0.00159 s⁻¹ in the assay with Staphylococcus aureus [13]. Besides, the Vmax in the assay on Staphylococcus aureus [3] worked out at 0.157 µM/min; in the assay on Staphylococcus aureus [20], 0.0476 µM/min; in the assay with Staphylococcus aureus [21], 0.0722 µM/min. The MIC was 1 µg/mL (≈ 3.24 µM) in the assay with Staphylococcus aureus [4]; 1 µg/mL (≈ 3.24 µM) in the assay on Staphylococcus aureus [7]; more than 1020 µg/mL in the assay with Staphylococcus aureus [9]; more than 256 µg/mL in the assay on Staphylococcus aureus [10]; 1 µg/mL (≈ 3.24 µM) in the assay with Staphylococcus aureus [14]; 512 µg/mL (≈ 1660 µM) in the assay with Staphylococcus aureus [17]. The MIC in the assay on Staphylococcus aureus [18] is more than 1020 µg/mL; in the assay with Staphylococcus aureus [19], 512 µg/mL (≈ 1660 µM). The “fractional inhibitory concentration index (FICI)” value in the assay with Staphylococcus aureus [6] worked out at 0.5; with Staphylococcus aureus [8] it was 0.25; in the assay with Staphylococcus aureus [12] it was 1.004; in the assay with Staphylococcus aureus [15] it was 0.5; in the assay on Staphylococcus aureus [16] it was 0.25. Besides, on Bacterial 70S ribosome [11], the Kd was determined as 2.4 nM.
Consider `CC[C@H]1OC(=O)[C@@](C)(F)C(=O)[C@H](C)[C@@H](O[C@@H]2O[C@H](C)C[C@H](N(C)C)[C@H]2O)[C@](C)(OC)C[C@@H](C)C(=O)[C@H](C)[C@H]2N(CCCCn3cc(-c4cccc(N)c4)nn3)C(=O)O[C@]12C` [SOLITHROMYCIN], for which the Ki at Bacterial 70S ribosome [22] was 60.3 nM.
For the compound `C[C@@H]1O[C@@H]1P(=O)(O)O` [FOSFOMYCIN], the MIC was 4 µg/mL (≈ 29 µM) in the assay with Staphylococcus aureus [4]; 16 µg/mL (≈ 116 µM) in the assay with Staphylococcus aureus [7]; 16 µg/mL (≈ 116 µM) in the assay on Staphylococcus aureus [9]; 16 µg/mL (≈ 116 µM) in the assay on Staphylococcus aureus [10]; 32 µg/mL (≈ 232 µM) with Staphylococcus aureus [14]; 16 µg/mL (≈ 116 µM) in the assay with Staphylococcus aureus [17]. The MIC in the assay on Staphylococcus aureus [18] and in the assay with Staphylococcus aureus [19] was 16 µg/mL (≈ 116 µM) in each case.

Source of the values: ChEMBL document CHEMBL4680355, “Staphylococcus aureus resistance to albocycline can be achieved by mutations that alter cellular NAD/PH pools” (Bioorg Med Chem, 2021).
